Laboratory results: PubChem BioAssay (NCI)
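A five-concentration, 48-hour dose response in 96-well plates underlies each endpoint, interpolated linearly between surrounding concentrations. GI50: concentration for 50% inhibition of growth. TGI is the concentration that stops growth completely.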

What was measured:
Experiment in all cases: inhibition of tumour cell growth, NCI panel, 48 h
HOP-62 NSCLC = tested on: HOP-62 NSCLC
KM12 colon = tested on: KM12 colon
NCI-H23 lung = tested on: NCI-H23 lung
IGROV1 ovarian = tested on: IGROV1 ovarian
NCI-H226 lung = tested on: NCI-H226 lung
NCI-H460 lung = tested on: NCI-H460 lung
A549 NSCLC = tested on: A549 NSCLC
SR leukemia = tested on: SR leukemia
NCI/ADR-RES ovarian = tested on: NCI/ADR-RES ovarian
MDA-MB-231 breast = tested on: MDA-MB-231 breast

Compound	TGI (HOP-62 NSCLC) [µM]	TGI (KM12 colon) [µM]	TGI (NCI-H23 lung) [µM]	TGI (IGROV1 ovarian) [µM]	TGI (NCI-H226 lung) [µM]	TGI (NCI-H460 lung) [µM]	TGI (A549 NSCLC) [µM]	TGI (SR leukemia) [µM]	GI50 (HOP-62 NSCLC) [µM]	GI50 (KM12 colon) [µM]	GI50 (NCI/ADR-RES ovarian) [µM]	TGI (NCI/ADR-RES ovarian) [µM]	GI50 (NCI-H23 lung) [µM]	GI50 (MDA-MB-231 breast) [µM]	TGI (MDA-MB-231 breast) [µM]	GI50 (IGROV1 ovarian) [µM]	GI50 (NCI-H226 lung) [µM]	GI50 (NCI-H460 lung) [µM]	GI50 (A549 NSCLC) [µM]	GI50 (SR leukemia) [µM]
O=S1(=O)C[C@@H](O)[C@H](O)CS1	> 100	> 100	> 100	> 100	> 100	> 100	> 100	> 100	–	–	–	–	–	–	–	–	–	–	–	–
COc1cc2c(/C=C3/C(=O)Nc4ccccc43)c(Cl)n(Cc3ccccc3[N+](=O)[O-])c2cc1C	27.6	21.3	22.3	> 100	38.4	> 100	> 100	–	10.7	4.9	4.71	20.3	7.77	3.85	31.3	7.46	12.7	5.51	7.8	–
CC(=O)Nc1ccc(C2[C@H]3C(=O)N(c4ccc(Cc5ccc(N6C(=O)[C@@H]7ON(c8ccccc8)C(c8ccc(NC(C)=O)cc8)[C@@H]7C6=O)cc5)cc4)C(=O)[C@H]3ON2c2ccccc2)cc1 (some centres undefined)	> 100	> 100	> 100	> 100	> 100	> 100	> 100	> 100	–	–	–	–	–	–	–	–	–	–	–	–
COC(=O)c1ccc(N=NN(C)CO)cc1	> 100	> 100	> 100	> 100	> 100	> 100	> 100	> 100	–	–	–	–	–	–	–	–	–	–	–	–
CC(=O)/C=C/c1ccc(C2CC(C)=Nc3c(ccc4c3C(=O)c3ccccc3C4=O)N2)cc1 (centres undefined)	> 100	> 23.6	> 100	> 100	> 100	> 100	> 100	> 100	–	–	–	–	–	–	–	–	–	–	–	–
CN(c1ccccc1)C(c1ccccc1)C(O)c1ccccc1 (centres undefined)	38	34.4	40.4	45.4	–	36.2	35.4	49.8	–	–	–	–	–	–	–	–	–	–	–	–
COc1ccc(/C=C2/C[N+](C)(C)C/C(=C/c3ccc(OC)cc3)C2=O)cc1	> 100	36.3	> 100	64.7	> 100	> 100	> 100	–	–	–	–	–	–	–	–	–	–	–	–	–
CC(C)(O)C1OCC(C2CCC3(C)C4=CCC5C(C)(C)C(O)CCC5(C)C4CCC23C)CC1O (centres undefined)	–	27	81.3	31	27.9	26.1	31.8	–	–	–	–	27	–	–	28.6	–	–	–	–	–
COC(=O)c1c(CC#N)cccc1CC#N	> 100	> 100	> 100	> 100	> 100	> 100	> 100	> 100	–	–	–	–	–	–	–	–	–	–	–	–
CCOC(=O)CC1=CSC2=NCCN12	> 100	> 100	> 100	> 100	> 100	> 100	> 100	–	–	–	–	–	–	–	–	–	–	–	–	–
N.N.NC(CS)C(=O)[O-].NC(CS)C(=O)[O-].[Pt+4] (centres undefined)	–	> 50	> 50	> 50	> 50	> 50	> 50	> 50	–	> 50	–	–	> 50	–	–	> 50	> 50	> 50	> 50	> 50
O=C([CH-]C(=O)c1ccccc1)c1ccccc1.O=C([CH-]C(=O)c1ccccc1)c1ccccc1.[Nd+3].[OH-].[OH3+]	18.4	49.6	18.6	61.2	8.28	25.3	51.5	–	3.58	6.27	–	–	3.91	–	–	11.5	1.94	6.18	17.2	–
O=c1cc2ccccc2nn1-c1ccccc1Cl	> 100	> 100	> 100	> 100	> 100	> 100	> 100	–	–	–	–	–	–	–	–	–	–	–	–	–
CS(=O)c1ccc(COP(N)(=O)N(CCCl)CCCl)cc1 (centres undefined)	> 100	> 100	> 100	> 100	> 100	> 100	> 100	> 100	–	–	–	–	–	–	–	–	–	–	–	–
C=C1CC[C@@H]2C(C)(C)CCC[C@@]2(C)[C@@H]1Cc1cc(O)ccc1O	25.8	19.2	18.7	5.65	7.09	33.4	23	12.1	–	–	–	–	–	–	–	–	–	–	–	–
C=C(CN1CCc2ccccc2C1)c1ccc(C(=O)Nc2ccc(N)cc2)cc1	> 100	48.4	> 100	–	> 100	> 100	52.5	–	28.5	20.4	19.1	> 100	17.4	20.5	> 100	–	58.5	27.7	18.7	–
O=C(O)C12C3CCCC1C2CC3 (centres undefined)	> 100	> 100	> 100	> 100	> 100	> 100	> 100	> 100	–	–	–	–	–	–	–	–	–	–	–	–

Compound	TGI (HOP-62 NSCLC) [µM]	TGI (KM12 colon) [µM]	TGI (NCI-H23 lung) [µM]	TGI (IGROV1 ovarian) [µM]	TGI (NCI-H226 lung) [µM]	TGI (NCI-H460 lung) [µM]	TGI (A549 NSCLC) [µM]	TGI (SR leukemia) [µM]	GI50 (HOP-62 NSCLC) [µM]	GI50 (KM12 colon) [µM]	GI50 (NCI/ADR-RES ovarian) [µM]	TGI (NCI/ADR-RES ovarian) [µM]	GI50 (NCI-H23 lung) [µM]	GI50 (MDA-MB-231 breast) [µM]	TGI (MDA-MB-231 breast) [µM]	GI50 (IGROV1 ovarian) [µM]	GI50 (NCI-H226 lung) [µM]	GI50 (NCI-H460 lung) [µM]	GI50 (A549 NSCLC) [µM]	GI50 (SR leukemia) [µM]
CC1NOC(=O)C1N=Nc1ccccc1Cl (centres undefined)	> 100	> 100	> 100	> 100	–	> 100	> 100	–	–	–	–	–	–	–	–	–	–	–	–	–
O=C(O)c1cc2c(cn1)[nH]c1ccccc12	> 100	> 100	> 100	> 100	> 100	> 100	> 100	> 100	–	–	–	–	–	–	–	–	–	–	–	–
CC(=O)OCC1OC(n2c(=O)n(-c3ccccc3)c(=O)c3ccccc32)C(OC(C)=O)C(OC(C)=O)C1OC(C)=O (centres undefined)	> 100	> 100	> 100	> 100	> 100	> 100	> 100	–	–	–	–	–	–	–	–	–	–	–	–	–
C[N+](C)(CCCCCC[N+](C)(C)CCCN1C(=O)c2cc3ccccc3cc2C1=O)CCCN1C(=O)c2ccccc2C1=O	> 37.5	> 37.5	> 37.5	> 37.5	> 37.5	> 37.5	> 37.5	–	> 37.5	> 37.5	> 37.5	> 37.5	> 37.5	> 37.5	> 37.5	> 37.5	> 37.5	> 37.5	> 37.5	–
CCOC(=O)C1C(=O)c2ccccc2CN1Cc1ccccc1 (centres undefined)	> 100	> 100	> 100	> 100	> 100	> 100	> 100	> 100	–	–	–	–	–	–	–	–	–	–	–	–
O=C1C(=O)N(c2ccc(Cl)c(Cl)c2)C(=O)C(=O)C1c1nc2ccccc2o1	> 100	> 100	> 100	> 100	> 100	> 100	> 100	86	–	–	–	–	–	–	–	–	–	–	–	–
COc1ccc2ccc([Se]c3ccc4ccc(OC)cc4c3)cc2c1	> 100	> 100	> 100	> 100	> 100	> 100	> 100	–	–	–	–	–	–	–	–	–	–	–	–	–
O=c1cc(-c2ccccc2)nc2n1CCN2Cc1ccccc1	> 100	> 100	–	53.2	> 100	> 100	> 100	–	63.8	35.7	–	–	–	32.2	> 100	21.2	54.7	36	35.2	–
CC1=Cc2cc3[n-]c(cc4nc(cc5[n-]c(cc1n2)cc5C)C(C)=C4CCC(=O)O)c(CCC(=O)O)c3C.[Pd+2]	34.3	53.3	25.2	25.6	17.8	59.2	54.7	9.75	17.7	27	–	–	9.55	–	–	14.2	8.95	33.5	32.1	2.82
Cc1c2cc[nH]c(=O)c2cc2c(=O)c3cnccc3[nH]c12	> 100	> 100	> 100	> 100	> 100	> 100	> 100	–	–	–	–	–	–	–	–	–	–	–	–	–
CC(C(=O)Oc1ccc2ccccc2c1-c1c(O)ccc2ccccc12)c1ccccc1 (centres undefined)	29.8	26.1	30.3	34.9	26.5	27.6	30	–	–	–	–	–	–	–	–	–	–	–	–	–
CC1(C)OCC(CO)(Nc2nc(N3CC3)nc(N3CC3)n2)CO1	30.9	43.3	16.3	58.5	28.5	29	34.3	28.9	–	–	–	–	–	–	–	–	–	–	–	–
COC(=O)C(Nc1ccc(OC)cc1)c1ccccc1 (centres undefined)	> 100	> 100	> 100	> 100	–	> 100	> 100	> 100	–	–	–	> 100	–	–	–	–	–	–	–	–
CCOC(=O)C(C)c1cc(C2(C)OCCO2)c(C)o1 (centres undefined)	> 100	> 100	> 100	> 100	–	> 100	> 100	–	–	–	–	–	–	–	–	–	–	–	–	–
COC(=O)c1nc(NC#N)[nH]c(=O)c1C	> 100	> 100	> 100	> 100	–	> 100	> 100	–	–	–	–	–	–	–	–	–	–	–	–	–
O=C1OC2(c3ccccc3Oc3ccccc32)c2ccccc21	> 100	> 100	> 100	> 100	> 100	> 100	> 100	> 100	–	–	–	–	–	–	–	–	–	–	–	–
